Test results published in EP4342467A1, “KU INHIBITORS FOR USE IN TUMOR THERAPY” (Masarykova Univerzita, priority 2022, dated 2024).

How the values were obtained:
Ku complex = Ku complex (Homo sapiens, UniProt P12956+P13010); experiment: electrophoretic mobility shift assay (EMSA) of Ku binding to double stranded DNA; conditions: 98 bp DNA probe, compared with STL127705 (Figure 1)
Text: We also compared iKU-1 (Compound 1) and the published Ku inhibitor STL127705 (Weterings, E., Gallegos, A.C., Dominick, L.N., Cooke, L.S., Bartels, T.N., Vagner, J., Matsunaga, T.O., and Mahadevan, D. (2016). A novel small molecule inhibitor of the DNA repair protein Ku70/80. DNA Repair (Amst) 43, 98-106) in their efficiency to inhibit binding of Ki to double stranded DNA by electrophoretic mobility shift assay (Figure 1). A 98 bp long oligonucleotide that can bind up to four Ku complexes was used as a probe.
DNA (0.6 nM) in 10 µl EMSA buffer (35 mM Tris-Cl pH 7.9, 150 mM KCl, 1 mM EDTA, 0.1 mM Dithiothreitol, 5% Glycerol) was mixed with 10 µl of human Ku complex (100 nM in EMSA buffer) preincubated with the inhibitors for 5 min at room temperature, and incubated for additional 10 min. DNA associated with Ku complexes was seprated by native polyacrylamide gel electrophoresis (5% polyacrylamide 29:1 [Sigma-Aldrich], 0.5 TBE) at 160 V for 4 hrs. Gels were dried in gel dryer on 3MM paper, exposed to phospho-screen (GE Healthcare) and the autoradiograms were generated by scanning with Typhoon (GE Healthcare).

HCT116 cells [1] = experiment: DNA damage induction, immunodetection of γH2AX in nuclei; assay type: cell-based, human; conditions: HCT116 incubated for 1 day
Method: iKU-1 induces DNA damage in treated cells (Figure 3). HCT116 cells were incubated for 1 day in McCoy's 5a medium with 10% Fetal Bovine Serum, 2 mM L-Glutamine and Penicilin/Streptomycin 200 U/l each and supplemented with iKU-1. DNA damage induction was assessed by immunodetection of yH2AX in nuclei with specific antibody (Anti-phospho-Histone H2A.X (Ser139) Antibody, clone JBW301, Merck; dilution 1:500) and Alexa Fluor-conjugated secondary antibody (Goat anti-Mouse IgG (H+L) Highly Cross-Adsorbed Secondary Antibody, Alexa Fluor™ Plus 647, Invitrogen/Thermofisher; dilution 1:500).

HCT116 cells [2] = experiment: Q-FISH scoring of chromosome arms with no telomeric signal; assay type: cell-based, human; conditions: HCT116, one or two days, 2 or 5 µM
Method: Presence of extrachromosomal circular telomeric DNA indicates rapid telomere shortening via excision of telomeric circles. To validate this prediction, we scored chromosome arms with no telomeric signal on metaphase chromosomes from iKU-1 treated cells by quantitative fluorescence in situ hybridization (Q-FISH). HCT116 cells were incubated for one or two days in McCoy's 5a medium with 10% Fetal Bovine Serum, 2 mM L-Glutamine and Penicilin/Streptomycin 200 U/l each and supplemented with iKU-1 (2 or 5 µM). Treated cells were incubated with colcemid (0.05 µg/ml) for 3 hours to increase a number of cells in metaphase. Cells were harvested and fixed in methanol and glacial acetic acid (3:1 v/v). Chromosome spreads on slides were hybridized with telomeric peptide nucleid acid probe TelC-Cy3 (Panagene, F1002) in 70% formamide, 0.5% blocking reagent (Roche) and 20 mM TRIS-Cl pH 7.4 according manufacturer's instruction. After washing, slides were counterstained with DAPI and mounted in […]® Antifade Mounting Medium with DAPI (Vector Laboratories; H-1200-10). Fluorescence microscope with oil immersed 100× objective was used to detect telomeric signal at chromosome ends.

HCT116 cells [3] = experiment: Telomere Shortest Length Assay; assay type: cell-based, human; conditions: HCT116 treated for two days, compared with untreated control
Method: iKU-1 induces rapid shortening of telomeres (Figure 6). HCT116 cells were treated for two days with iKU-1 and telomere size was measured by Telomere Shortest Length Assay as described in Lai, T.P., Zhang, N., Noh, J., Mender, I., Tedone, E., Huang, E., Wright, W.E., Danuser, G., and Shay, J.W. (2017). A method for measuring the distribution of the shortest telomeres in cells and tissues. Nat Commun 8, 1356, whereby individual telomeres are PCR-amplified, separated by agarose gel electrophoresis and detected by Southern hybridization with P^32-labeled telomeric DNA oligonucleotide (5'-[…]-3' (SEQ ID NO: 6)).

U2OS = experiment: combination with BIBR1532, relative growth by ATPlite; assay type: cell-based, human; conditions: 10 µM BIBR1532, 0.25 µM iKU-1 or their combination, 4 days
HeLa = experiment: as above; assay type: cell-based, human; conditions: 10 µM BIBR1532, 0.25 µM iKU-1 or their combination, 4 days

Chain of Ku complex (P12956 whole entry): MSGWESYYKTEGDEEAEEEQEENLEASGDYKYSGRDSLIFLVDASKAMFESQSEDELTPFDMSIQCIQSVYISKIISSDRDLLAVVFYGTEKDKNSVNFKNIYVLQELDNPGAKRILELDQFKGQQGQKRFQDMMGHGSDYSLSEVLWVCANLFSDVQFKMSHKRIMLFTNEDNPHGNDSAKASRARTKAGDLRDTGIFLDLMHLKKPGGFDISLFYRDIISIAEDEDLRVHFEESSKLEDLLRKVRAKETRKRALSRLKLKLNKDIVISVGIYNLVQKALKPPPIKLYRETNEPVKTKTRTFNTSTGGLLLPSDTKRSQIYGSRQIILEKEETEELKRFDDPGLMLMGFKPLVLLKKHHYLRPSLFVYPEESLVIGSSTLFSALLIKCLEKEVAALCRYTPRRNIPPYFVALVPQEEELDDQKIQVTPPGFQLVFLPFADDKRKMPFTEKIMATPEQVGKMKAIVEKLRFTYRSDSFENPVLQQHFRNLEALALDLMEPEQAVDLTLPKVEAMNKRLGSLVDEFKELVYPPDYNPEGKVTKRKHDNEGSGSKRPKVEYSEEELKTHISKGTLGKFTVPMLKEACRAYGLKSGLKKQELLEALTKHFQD
Chain of Ku complex (P13010 whole entry): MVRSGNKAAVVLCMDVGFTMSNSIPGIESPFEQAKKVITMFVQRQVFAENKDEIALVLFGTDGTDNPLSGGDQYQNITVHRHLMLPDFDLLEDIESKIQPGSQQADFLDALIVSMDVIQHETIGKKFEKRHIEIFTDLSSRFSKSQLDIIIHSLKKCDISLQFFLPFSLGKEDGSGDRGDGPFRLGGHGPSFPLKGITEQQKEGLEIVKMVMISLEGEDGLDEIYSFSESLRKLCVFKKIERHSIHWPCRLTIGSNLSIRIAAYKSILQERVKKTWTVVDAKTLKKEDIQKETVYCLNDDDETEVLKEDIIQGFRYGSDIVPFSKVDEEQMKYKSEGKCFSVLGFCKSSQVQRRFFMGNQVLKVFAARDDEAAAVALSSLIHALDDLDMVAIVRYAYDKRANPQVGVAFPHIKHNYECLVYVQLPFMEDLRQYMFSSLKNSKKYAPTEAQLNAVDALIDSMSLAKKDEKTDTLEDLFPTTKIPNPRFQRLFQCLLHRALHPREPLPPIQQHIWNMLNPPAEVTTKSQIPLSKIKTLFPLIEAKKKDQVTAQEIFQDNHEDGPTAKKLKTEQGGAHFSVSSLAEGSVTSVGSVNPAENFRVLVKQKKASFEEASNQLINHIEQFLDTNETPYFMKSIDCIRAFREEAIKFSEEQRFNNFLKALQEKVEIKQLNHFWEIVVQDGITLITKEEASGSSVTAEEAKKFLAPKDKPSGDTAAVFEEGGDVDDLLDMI

## O=C(Nc1nc(-c2ccccn2)cs1)c1cncc(Br)c1 [Compound 1]
Ku complex
  efficiency to inhibit binding of Ku to double stranded DNA: more potent inhibitor of Ku-DNA binding than STL127705
HCT116 cells [1]
  DNA damage induction (γH2AX signal): formation of either nuclear foci or whole nuclear staining in a subset of cells
HCT116 cells [2]
  incidence of telomere-free chromosome ends: increase incidence of telomere-free chromosome ends
HCT116 cells [3]
  size of telomeres: relative decrease in the size of telomeres
U2OS
  relative growth assessed by ATPlite kit compared to the control sample treated with 0.5% DMSO: 0.81
HeLa
  relative growth assessed by ATPlite kit compared to the control sample treated with 0.5% DMSO: 1.22
